Active and inactive are the calls of the source. The calls are words filed in the database; no cut-off is given here.
Legend:
[1] = molecular target: T1, E-selectin (Homo sapiens) (UniProt P16581); experiment: Ratio of compound IC50 to sialyl Lewis X IC50 for E-selectin by ELISA
T1 sequence (whole entry): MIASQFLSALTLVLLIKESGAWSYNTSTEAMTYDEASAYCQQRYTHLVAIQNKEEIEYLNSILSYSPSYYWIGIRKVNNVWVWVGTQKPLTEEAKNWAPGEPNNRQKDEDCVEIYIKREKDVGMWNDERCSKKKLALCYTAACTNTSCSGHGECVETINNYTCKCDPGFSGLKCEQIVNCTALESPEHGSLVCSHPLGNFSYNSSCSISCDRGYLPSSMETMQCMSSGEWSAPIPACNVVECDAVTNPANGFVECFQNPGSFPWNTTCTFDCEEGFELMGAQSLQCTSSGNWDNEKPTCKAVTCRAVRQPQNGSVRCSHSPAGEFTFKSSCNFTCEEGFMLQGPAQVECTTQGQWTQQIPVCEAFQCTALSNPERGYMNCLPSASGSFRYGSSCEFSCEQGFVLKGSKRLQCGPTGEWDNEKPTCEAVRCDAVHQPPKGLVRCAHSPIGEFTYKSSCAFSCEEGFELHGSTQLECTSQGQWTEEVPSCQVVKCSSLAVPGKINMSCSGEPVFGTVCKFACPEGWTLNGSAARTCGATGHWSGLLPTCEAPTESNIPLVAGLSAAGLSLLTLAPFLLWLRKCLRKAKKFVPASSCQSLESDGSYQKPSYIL

[2] = molecular target: T1, E-selectin (Homo sapiens); experiment: Ratio of sialyl Lewis X IC50 to compound IC50 for E-selectin by ELISA
[3] = molecular target: T1, E-selectin (Homo sapiens); experiment: Inhibition of CGP-69669A binding to E-selectin by ELISA

Compound	Ratio IC50 [1]	Ratio IC50 [2]	inhibition [3]
C[C@@H]1O[C@@H](O[C@@H]2CCCC[C@H]2O[C@@H]2O[C@H](CO)[C@H](O)[C@H](O[C@@H](CN=[N+]=[N-])C(=O)O)[C@H]2O)[C@@H](O)[C@H](O)[C@@H]1O	0.29	–	–
C[C@@H]1O[C@@H](O[C@@H]2CCCC[C@H]2O[C@@H]2O[C@H](CO)[C@H](O)[C@H](O[C@@H](Cn3cc(Cn4nnc5ccccc54)nn3)C(=O)O)[C@H]2O)[C@@H](O)[C@H](O)[C@@H]1O	1.18	–	–
C[C@@H]1O[C@@H](O[C@@H]2CCCC[C@H]2O[C@@H]2O[C@H](CO)[C@H](O)[C@H](O[C@@H](CC3CCCCC3)C(=O)O)[C@H]2O)[C@@H](O)[C@H](O)[C@@H]1O	0.08	12	–
C[C@@H]1O[C@@H](O[C@@H]2CCCC[C@H]2O[C@@H]2O[C@H](CO)[C@H](O)[C@H](O[C@@H](Cn3cc(-c4cccnc4)nn3)C(=O)O)[C@H]2O)[C@@H](O)[C@H](O)[C@@H]1O	3.13	–	–
C[C@@H]1O[C@@H](O[C@@H]2CCCC[C@H]2O[C@@H]2O[C@H](CO)[C@H](O)[C@H](O[C@@H](Cn3cc(-c4ccsc4)nn3)C(=O)O)[C@H]2O)[C@@H](O)[C@H](O)[C@@H]1O	0.88	–	–
C[C@@H]1O[C@@H](O[C@@H]2CCCC[C@H]2O[C@@H]2O[C@H](CO)[C@H](O)[C@H](O[C@@H](Cn3cc(Cn4nnc5c4CCCC5)nn3)C(=O)O)[C@H]2O)[C@@H](O)[C@H](O)[C@@H]1O	1.22	–	–
C[C@@H]1O[C@@H](O[C@@H]2CCCC[C@H]2O[C@@H]2O[C@H](CO)[C@H](O)[C@H](O[C@@H](Cn3cc(Cc4ccccc4)nn3)C(=O)O)[C@H]2O)[C@@H](O)[C@H](O)[C@@H]1O	1.03	–	–
C[C@@H]1O[C@@H](O[C@@H]2CCCC[C@H]2O[C@@H]2O[C@H](CO)[C@H](O)[C@H](O[C@@H](Cn3cc(-c4cccc(C(F)(F)F)c4)nn3)C(=O)O)[C@H]2O)[C@@H](O)[C@H](O)[C@@H]1O	–	–	inactive
C[C@@H]1O[C@@H](O[C@@H]2CCCC[C@H]2O[C@@H]2O[C@H](CO)[C@H](O)[C@H](O[C@@H](Cn3ccnn3)C(=O)O)[C@H]2O)[C@@H](O)[C@H](O)[C@@H]1O	0.48	–	–
